Assay results published in US7314953B2, “Treatment of lung cells with histone deacetylase inhibitors” (Errant Gene Therapeutics, LLC, priority 2001, dated 2008).

How the values were obtained:
non-CF HBE cells = experiment: Short circuit current (Ussing chamber), electrogenic sodium transport in non-CF HBE cells derived from COPD patients; assay type: cell-based, human; conditions: Homo sapiens; 1 μM, non-CF HBE cells
Experimental: Studies were carried out using human bronchial epithelial (HBE) cells derived from five cystic fibrosis (CF) patients and five nonCF patients. The protocol is described in Devor, D. C. et al., “Pharmacological modulation of ion transport across wild-type and DeltaF508 CFTR-expressing human bronchial epithelia,” Am. J. Physiol. 279: C461-C479, 2000.
Cells were isolated and grown on filters for short circuit current (Isc) studies. Cells were mounted in modified Ussing chambers and the Isc monitored. The change in Isc in response to amiloride (10 μM) was taken as a measure of net electrogenic sodium transport after equilibration for 20 minutes. Forskolin (2 μM), UTP (100 μM), and genistein (30 μM) were used to stimulate anion secretion. Results from 6 to 12 similar experiments were obtained.
7-Phenyl-2,4,6-heptatrienoylhydroxamic acid ([…]) was added to the culture medium and the cells were incubated for 24, 48, and 72 hours. Cells were fed every 24 hours with fresh media containing the compound. Control cells received an equivalent amount of vehicle (DMSO). Short circuit current measurements were also made on T84 cells, a human colonic epithethial cell line that secretes chloride by a CFTR mediated mechanism, and on M1 cells, a mouse kidney cell line that absorbs sodium by an ENaC mediated mechanism.
Table 3 sumarizes the results of treating non-CF cells derived from COPD patients with 30 μM 7-phenyl-2,4,6-heptatrienoylhydroxamic acid for 72 hours. Electrogenic sodium transport was estimated from the amiloride (5 μM) sensitive short circuit current. Anion secretion was estimated from the forskolin (2 μM) stimulated short circuit current after the addition of amiloride. The treatment of cells with 30 μM 7-phenyl-2,4,6-heptatrienoylhydroxamic acid for 72 hours caused an inhibition in the amiloride sensitive sodium transport of nearly 80%. This effect was concentration and dose dependent with a half-maximal inhibition concentration of 13 μM±3 μM and a half-maximal inhibition at 24 hours.

histone deacetylase = histone deacetylase inhibitor; cited from earlier work
CF HBE cells = experiment: Short circuit current (Ussing chamber), electrogenic sodium transport in CF HBE cells; assay type: cell-based, human; conditions: HBE cells treated for 72 hours

**Q.** With `CC(/C=C/C(=O)NO)=C\[C@@H](C)C(=O)c1ccc(N(C)C)cc1` [Trichostatin, reference compound] as the molecule, how does the inhibition at 1 µM (non-CF HBE cells) read?
**A.** Its inhibition at 1 µM is 70%.

**Q.** What about the Ki (histone deacetylase) of the same molecule?
**A.** The Ki was “low”.

**Q.** And the “effect on sodium transport” value (CF HBE cells; 3 nM, 30 nM, and 100 nM)?
**A.** Its value is “no effect”.

**Q.** What about the inhibition at 1 µM (CF HBE cells; Homo sapiens, 1 μM) of the same molecule?
**A.** Its inhibition at 1 µM is 84%.
